Measurements from patent US20130029962A1, “Substituted Heteroaromatic Pyrazole-Containing Carboxamide and Urea Compounds as Vanilloid Receptor Ligands” (Gruenenthal GmbH, priority 2011, published 2013).

These compounds were tested against T1, vanilloid receptor 1 (VR1/TRPV1 receptor) (Homo sapiens, UniProt Q8NER1) (assay: Functional testing on the vanilloid receptor 1 (VR1/TRPV1): FLIPR Ca2+ influx assay, displacement of capsaicin). Settings: 5 μM compound; capsaicin (Cap); human being; read-out: inhibition (as a percentage) at the concentration after @, Cap.
T1 construct: expressed in transfected cells; host or cells: CHO K1
Type: cell-based, human being
Design: key to mode of action at VR1/TRPV1 (AG, pAG, NE), Cap: AG=agonist; NE=no effect; pAG=partial agonist
How it was run: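 Fluo-4 FLIPR Ca2+ influx in CHO K1 cells transfected with human VR1, measuring displacement of 100 nM capsaicin; rat VR1 agonism/antagonism also assessed in rat dorsal root ganglion neurons cultured 2–3 days at 37° C with 25 ng/mL NGF, then loaded with 2 μM Fluo-4.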

T1 sequence (Q8NER1 whole entry): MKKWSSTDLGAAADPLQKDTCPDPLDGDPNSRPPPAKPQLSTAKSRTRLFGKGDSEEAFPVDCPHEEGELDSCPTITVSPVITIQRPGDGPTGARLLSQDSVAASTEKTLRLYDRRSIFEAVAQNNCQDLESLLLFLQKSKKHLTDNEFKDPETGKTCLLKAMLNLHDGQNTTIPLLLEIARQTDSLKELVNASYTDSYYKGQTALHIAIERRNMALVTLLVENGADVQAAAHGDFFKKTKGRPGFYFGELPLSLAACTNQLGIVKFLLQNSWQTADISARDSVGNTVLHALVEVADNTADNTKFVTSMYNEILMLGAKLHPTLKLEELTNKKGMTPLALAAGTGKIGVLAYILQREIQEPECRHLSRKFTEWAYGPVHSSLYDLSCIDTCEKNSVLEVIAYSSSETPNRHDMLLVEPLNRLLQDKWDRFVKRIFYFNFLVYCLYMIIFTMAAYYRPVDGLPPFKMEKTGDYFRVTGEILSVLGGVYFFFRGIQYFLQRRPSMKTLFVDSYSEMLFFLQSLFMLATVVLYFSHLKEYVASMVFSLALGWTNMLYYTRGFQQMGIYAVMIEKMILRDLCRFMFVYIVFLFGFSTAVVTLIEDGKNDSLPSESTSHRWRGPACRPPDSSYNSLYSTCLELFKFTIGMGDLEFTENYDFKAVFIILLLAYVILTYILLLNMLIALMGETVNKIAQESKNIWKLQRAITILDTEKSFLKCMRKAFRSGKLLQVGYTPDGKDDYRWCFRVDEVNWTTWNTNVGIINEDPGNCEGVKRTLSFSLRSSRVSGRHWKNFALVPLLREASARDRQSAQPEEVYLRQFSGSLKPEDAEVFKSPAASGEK

Structure (SMILES) | inhibition at 5 µM [%]
CC(C)(C)c1cc(CNC(=O)Cc2ccncc2)n(-c2cccc(Cl)c2)n1 [Example 10, N-((3-tert-butyl-1-(3-chlorophenyl)-1H-pyrazol-5-yl)methyl)-2-(pyridin-4-yl)acetamide] | 90
O=C(Cc1cccnc1)NCc1cc(C(F)(F)F)nn1-c1cccc(Cl)c1 [Example 7, N-((1-(3-chlorophenyl)-3-(trifluoromethyl)-1H-pyrazol-5-yl)methyl)-2-(pyridin-3-yl)acetamide] | 51
O=C(NCc1cc(C(F)(F)F)nn1-c1cccc(Cl)c1)Nc1cccnc1 [Example 9, 1-((1-(3-chlorophenyl)-3-(trifluoromethyl)-1H-pyrazol-5-yl)methyl)-3-(pyridin-3-yl)urea] | 72
CC(C(=O)NCc1cc(C(F)(F)F)nn1-c1cccc(Cl)c1)c1ccccn1 (centres unmarked) [Example 3, N-((1-(3-chlorophenyl)-3-(trifluoromethyl)-1H-pyrazol-5-yl)methyl)-2-(pyridin-2-yl)propanamide] | 35
O=C(NCc1cc(C(F)(F)F)nn1-c1cccc(Cl)c1)Nc1ccncc1 [Example 12, 1-((1-(3-chlorophenyl)-3-(trifluoromethyl)-1H-pyrazol-5-yl)methyl)-3-(pyridin-4-yl)urea] | 85
NC(=O)c1ccc(NC(=O)NCc2cc(C(F)(F)F)nn2-c2cccc(Cl)c2)cn1 [Example 26, 5-(3-((1-(3-chlorophenyl)-3-(trifluoromethyl)-1H-pyrazol-5-yl)methyl)ureido)picolinamide] | 44
O=C(NCc1cc(C(F)(F)F)nn1-c1cccc(Cl)c1)Nc1ccccn1 [Example 5, 1-((1-(3-chlorophenyl)-3-(trifluoromethyl)-1H-pyrazol-5-yl)methyl)-3-(pyridin-2-yl)urea] | 29

Same assay, conditions: capsaicin (Cap) as stimulus; Ki from IC50 by Cheng-Prusoff; read-out: (f) Ki (human being) [nM] Cap

Structure (SMILES) | Ki [nM]
CC(C(=O)NCc1cc(C(C)(C)C)nn1-c1cccc(Cl)c1)c1cnc(C(=O)Nc2ccc(F)cc2)nc1 (centres unmarked) [Example 66, 5-(1-((3-tert-butyl-1-(3-chlorophenyl)-1H-pyrazol-5-yl)methylamino)-1-oxopropan-2-yl)-N-(4-fluorophenyl)pyrimidine-2-carboxamide] | 3
CC(C)(C)c1cc(CNC(=O)Nc2ccc(C(O)CO)nc2)n(-c2cccc(Cl)c2)n1 (centres unmarked) [Example 144, 1-((3-tert-butyl-1-(3-chlorophenyl)-1H-pyrazol-5-yl)methyl)-3-(6-(1,2-dihydroxyethyl)pyridin-3-yl)urea] | 24
CN(C)c1ncc(NC(=O)NCc2cc(C(C)(C)C)nn2-c2cccc(Cl)c2)cc1C(F)(F)F [Example 107, 1-((3-tert-butyl-1-(3-chlorophenyl)-1H-pyrazol-5-yl)methyl)-3-(6-(dimethylamino)-5-(trifluoromethyl)pyridin-3-yl)urea] | 5
CC(C(=O)NCc1cc(C(C)(C)C)nn1-c1cccc(Cl)c1)c1ccc(NS(C)(=O)=O)nc1 (centres unmarked) [Example 98, N-((3-tert-butyl-1-(3-chlorophenyl)-1H-pyrazol-5-yl)methyl)-2-(6-(methylsulfonamido)pyridin-3-yl)propanamide] | 8
CS(=O)(=O)CCc1ncc(NC(=O)NCc2cc(C(F)(F)F)nn2-c2cccc(Cl)c2)cc1F [Example 23, 1-((1-(3-chlorophenyl)-3-(trifluoromethyl)-1H-pyrazol-5-yl)methyl)-3-(5-fluoro-6-(2-(methylsulfonyl)ethyl)pyridin-3-yl)urea] | 29
Cc1ccc(NC(=O)NCc2cc(C(F)(F)F)nn2-c2cccc(Cl)c2)cn1 [Example 136, 1-((1-(3-chlorophenyl)-3-(trifluoromethyl)-1H-pyrazol-5-yl)methyl)-3-(6-methylpyridin-3-yl)urea] | 47
COCCNc1ccc(C(C)C(=O)NCc2cc(C(F)(F)F)nn2-c2cccc(Cl)c2)cn1 (centres unmarked) [Example 147, N-((1-(3-chlorophenyl)-3-(trifluoromethyl)-1H-pyrazol-5-yl)methyl)-2-(6-(2-methoxyethylamino)pyridin-3-yl)propanamide] | 18
CC(C(=O)NCc1cc(C(F)(F)F)nn1-c1cccc(Cl)c1)c1ccc(N(C)CCO)nc1 (centres unmarked) [Example 148, N-((1-(3-chlorophenyl)-3-(trifluoromethyl)-1H-pyrazol-5-yl)methyl)-2-(6-((2-hydroxyethyl)(methyl)amino)pyridin-3-yl)propanamide] | 15
O=C(NCc1cc(C(F)(F)F)nn1-c1cccc(Cl)c1)Nc1ccc(NCCO)nc1 [Example 71, 1-((1-(3-chlorophenyl)-3-(trifluoromethyl)-1H-pyrazol-5-yl)methyl)-3-(6-(2-hydroxyethylamino)pyridin-3-yl)urea] | 8
CC(C(=O)NCc1cc(C(F)(F)F)nn1-c1cccc(Cl)c1)c1ccc(C(=O)Nc2ccc(F)cc2)nc1 (centres unmarked) [Example 58, 5-(1-((1-(3-chlorophenyl)-3-(trifluoromethyl)-1H-pyrazol-5-yl)methylamino)-1-oxopropan-2-yl)-N-(4-fluorophenyl)picolinamide] | 5
O=C(NCc1cc(C(F)(F)F)nn1-c1ccc(F)c(Cl)c1)Nc1ccc(N2CC(O)C2)nc1 [Example 113, 1-((1-(3-chloro-4-fluorophenyl)-3-(trifluoromethyl)-1H-pyrazol-5-yl)methyl)-3-(6-(3-hydroxyazetidin-1-yl)pyridin-3-yl)urea] | 80
O=C(NCc1cc(C(F)(F)F)nn1-c1cccc(F)c1)Nc1ccc(N2CC(O)C2)nc1 [Example 112, 1-((1-(3-fluorophenyl)-3-(trifluoromethyl)-1H-pyrazol-5-yl)methyl)-3-(6-(3-hydroxyazetidin-1-yl)pyridin-3-yl)urea] | 48
CC(C(=O)NCc1cc(C(F)(F)F)nn1-c1ccc(F)c(Cl)c1)c1ccc(CCO)nc1 (centres unmarked) [Example 149, N-((1-(3-chloro-4-fluorophenyl)-3-(trifluoromethyl)-1H-pyrazol-5-yl)methyl)-2-(6-(2-hydroxyethyl)pyridin-3-yl)propanamide] | 28
CC(C(=O)NCc1cc(C(C)(C)C)nn1-c1cccc(Cl)c1)c1ccc(NC(=O)c2ccc(Cl)cc2)nc1 (centres unmarked) [Example 95, N-(5-(1-((3-tert-butyl-1-(3-chlorophenyl)-1H-pyrazol-5-yl)methylamino)-1-oxopropan-2-yl)pyridin-2-yl)-4-chlorobenzamide] | 2
O=C(Cc1ccc(Cl)nc1)NCc1cc(C(F)(F)F)nn1-c1cccc(Cl)c1 [Example 17, N-((1-(3-chlorophenyl)-3-(trifluoromethyl)-1H-pyrazol-5-yl)methyl)-2-(6-chloropyridin-3-yl)acetamide] | 29
CC(C(=O)NCc1cc(C(F)(F)F)nn1-c1cccc(Cl)c1)c1ccc(COCCO)nc1 (centres unmarked) [Example 53, N-((1-(3-chlorophenyl)-3-(trifluoromethyl)-1H-pyrazol-5-yl)methyl)-2-(6-((2-hydroxyethoxy)methyl)pyridin-3-yl)propanamide] | 44
O=C(NCc1cc(C(F)(F)F)nn1-c1cccc(Cl)c1)Nc1ccc(N2CCCC2)nc1 [Example 121, 1-((1-(3-chlorophenyl)-3-(trifluoromethyl)-1H-pyrazol-5-yl)methyl)-3-(6-(pyrrolidin-1-yl)pyridin-3-yl)urea] | 47
Cc1nc(CCO)ccc1NC(=O)NCc1cc(C(F)(F)F)nn1-c1cccc(Cl)c1 [Example 143, 1-((1-(3-chlorophenyl)-3-(trifluoromethyl)-1H-pyrazol-5-yl)methyl)-3-(6-(2-hydroxyethyl)-2-methylpyridin-3-yl)urea] | 84
CC(C(=O)NCc1cc(C(C)(C)C)nn1-c1cccc(Cl)c1)c1cnc(C(=O)Nc2ccccc2)nc1 (centres unmarked) [Example 65, 5-(1-((3-tert-butyl-1-(3-chlorophenyl)-1H-pyrazol-5-yl)methylamino)-1-oxopropan-2-yl)-N-phenylpyrimidine-2-carboxamide] | 70
O=C(NCc1cc(C(F)(F)F)nn1-c1cccc(Cl)c1)Nc1ccc(N2CCC2)nc1 [Example 109, 1-(6-(azetidin-1-yl)pyridin-3-yl)-3-((1-(3-chlorophenyl)-3-(trifluoromethyl)-1H-pyrazol-5-yl)methyl)urea] | 46
CC(C(=O)NCc1cc(C(C)(C)C)nn1-c1cccc(Cl)c1)c1ccc(C(=O)Nc2ccc(C(F)(F)F)cc2)nc1 (centres unmarked) [Example 61, 5-(1-((3-tert-butyl-1-(3-chlorophenyl)-1H-pyrazol-5-yl)methylamino)-1-oxopropan-2-yl)-N-(4-(trifluoromethyl)phenyl)picolinamide] | 45
O=C(NCc1cc(C(F)(F)F)nn1-c1cccc(Cl)c1)Nc1ccc(N2CC[C@@H](O)C2)nc1 [Example 124, (R)-1-((1-(3-chlorophenyl)-3-(trifluoromethyl)-1H-pyrazol-5-yl)methyl)-3-(6-(3-hydroxypyrrolidin-1-yl)pyridin-3-yl)urea] | 64
O=C(NCc1cc(C(F)(F)F)nn1-c1ccc(F)c(F)c1)Nc1ccc(NCCO)nc1 [Example 79, 1-((1-(3,4-difluorophenyl)-3-(trifluoromethyl)-1H-pyrazol-5-yl)methyl)-3-(6-(2-hydroxyethylamino)pyridin-3-yl)urea] | 26
CC(C(=O)NCc1cc(C(F)(F)F)nn1-c1cccc(Cl)c1)c1ccc(NC(=O)c2ccc(F)cc2)nc1 (centres unmarked) [Example 94, N-(5-(1-((1-(3-chlorophenyl)-3-(trifluoromethyl)-1H-pyrazol-5-yl)methylamino)-1-oxopropan-2-yl)pyridin-2-yl)-4-fluorobenzamide] | 4

Same assay, conditions: capsaicin (Cap); human being

Structure (SMILES) | mode of action at VR1/TRPV1 (AG, pAG, NE), Cap
CC(C)(C)c1cc(CNC(=O)Cc2ccncc2)n(-c2cccc(Cl)c2)n1 [Example 10, N-((3-tert-butyl-1-(3-chlorophenyl)-1H-pyrazol-5-yl)methyl)-2-(pyridin-4-yl)acetamide] | AG
O=C(NCc1cc(C(F)(F)F)nn1-c1cccc(Cl)c1)Nc1ccnnc1 [Example 15, 1-((1-(3-chlorophenyl)-3-(trifluoromethyl)-1H-pyrazol-5-yl)methyl)-3-(pyridazin-4-yl)urea] | AG
O=C(NCc1cc(C(F)(F)F)nn1-c1cccc(Cl)c1)Nc1cccnc1 [Example 9, 1-((1-(3-chlorophenyl)-3-(trifluoromethyl)-1H-pyrazol-5-yl)methyl)-3-(pyridin-3-yl)urea] | AG
O=C(NCc1cc(C(F)(F)F)nn1-c1cccc(Cl)c1)Nc1ccncc1 [Example 12, 1-((1-(3-chlorophenyl)-3-(trifluoromethyl)-1H-pyrazol-5-yl)methyl)-3-(pyridin-4-yl)urea] | AG
